Measurements reported in patent publication CN111517978A, “环己烯基-dl-天门冬氨酸衍生物及其制备方法、组合物与用途” (Zhongshan Wanhan Pharmaceutical Co ltd, priority 2020, dated 2020).

Key:
Assay type in all cases: cell-based
Settings in all cases: component A (XP or YS) alone
[1] = tested on: Klebsiella pneumoniae NCTC 9632 (肺炎克雷伯菌NCTC 9632); assay: Antibacterial action (MIC, FICI) against Klebsiella pneumoniae NCTC 9632 (Table 9)
[2] = tested on: Shigella flexneri 2aEW-10 (福氏志贺氏菌2aEW-10); assay: Antibacterial action (MIC, FICI) against Shigella flexneri 2aEW-10 (Table 15)
[3] = tested on: Propionibacterium acnes ATCC11828 (痤疮丙酸杆菌ATCC11828); assay: Antibacterial action (MIC, FICI) against Propionibacterium acnes ATCC11828 (Table 21)
[4] = tested on: Bacteroides fragilis ATCC25285 (脆弱拟杆菌ATCC25285); assay: Antibacterial action (MIC, FICI) against Bacteroides fragilis ATCC25285 (Table 26)
[5] = tested on: Escherichia coli ATCC25922 (大肠杆菌ATCC25922); assay: Antibacterial action (MIC, FICI) against Escherichia coli ATCC25922 (Table 7)
[6] = tested on: Stenotrophomonas maltophilia NCTC 13637 (嗜麦芽窄食单胞菌NCTC 13637); assay: Antibacterial action (MIC, FICI) against Stenotrophomonas maltophilia NCTC 13637 (Table 18)
[7] = tested on: Clostridium perfringens ATCC13124 (产气荚膜梭状芽孢杆菌ATCC13124)
[8] = tested on: Micrococcus lysodeikticus 2665 (溶壁微球菌2665); assay: Antibacterial action (MIC, FICI) against Micrococcus lysodeikticus 2665 (Table 4)
[9] = tested on: Serratia marcescens IFO 3736 (黏质沙雷氏菌IFO 3736); assay: Antibacterial action (MIC, FICI) against Serratia marcescens IFO 3736 (Table 10)
[10] = tested on: Providencia stuartii 57 (斯氏普罗威登斯菌57); assay: Antibacterial action (MIC, FICI) against Providencia stuartii 57 (Table 12)
[11] = tested on: Streptococcus intermedius ATCC27335 (中间链球菌ATCC27335); assay: Antibacterial action (MIC, FICI) against Streptococcus intermedius ATCC27335 (Table 20)

Row | Structure (SMILES) | MIC_A [1] [ng/mL] | MIC_A [2] [ng/mL] | MIC_A [3] [ng/mL] | MIC_A [4] [ng/mL] | MIC_A [5] [ng/mL] | MIC_A [6] [ng/mL] | MIC_A [7] [ng/mL] | MIC_A [8] [ng/mL] | MIC_A [9] [ng/mL] | MIC_A [10] [ng/mL] | MIC_A [11] [ng/mL]
1 | CCOC(=O)C1=C[C@@H](OC(CC)CC)[C@@H](NC(C)=O)[C@H](NC(CC(=O)O)C(=O)O)C1 (mixture of isomers) [化合物5P, ((1R,5R,6S)-6-乙酰氨基-3-(乙氧基羰基)-5-(戊-3-基氧基)环己-3-烯-1-基)-DL-天门冬氨酸] | 17 | 24 | 15 | 20 |  |  |  |  |  |  | 
2 | CCC(CC)O[C@@H]1C=C(C(=O)O)C[C@H](NC(CC(=O)O)C(=O)O)[C@H]1NC(C)=O (mixture of isomers) [化合物10P, ((1S,5R,6R)-6-乙酰氨基-3-羧基-5-(戊-3-基氧基)环己-3-烯-1-基)-DL-天门冬氨酸] |  | 25 | 35 | 6 |  |  |  |  |  |  | 
3 | CC(=O)N[C@H]1[C@H](O)C=C(C(=O)O)C[C@@H]1NC(CC(=O)O)C(=O)O (mixture of isomers) [化合物15P, ((1S,5R,6R)-6-乙酰氨基-3-羧基-5-羟基环己-3-烯-1-基)-DL-天门冬氨酸] |  | 3 |  | 24 | 15 | 24 | 47 |  |  |  | 
4 | CCOC(=O)C1=C[C@H](OC(CC)CC)[C@H](NC(CC(=O)O)C(=O)O)[C@@H](NC(C)=O)C1 (mixture of isomers) [化合物18P, ((1R,2S,6S)-6-乙酰氨基-4-(乙氧基羰基)-2-(戊-3-基氧基)环己-3-烯-1-基)-DL-天门冬氨酸] |  |  |  | 17 |  |  |  | 6 | 53 | 22 | 27
5 | CCOC(=O)C1=C[C@@H](OC(CC)CC)[C@H](NC(CC(=O)O)C(=O)O)[C@@H](N=[N+]=[N-])C1 (mixture of isomers) [化合物21P, ((1R,2R,6S)-6-叠氮基-4-(乙氧基羰基)-2-(戊-3-基氧基)环己-3-烯-1-基)-DL-天门冬氨酸] | 15 | 17 |  | 13 |  |  | 56 | 13 |  |  | 
6 | CCOC(=O)C1=C[C@@H](OC(CC)CC)[C@@H](NC(C)=O)[C@H](N)C1 [化合物5S, 乙基(3R,4S,5R)-4-乙酰氨基-5-氨基-3-(戊-3-基氧基)环己-1-烯-1-羧酸酯] | 507 | 483 | 919 | 323 |  |  |  |  |  |  | 
7 | CCOC(=O)C1=C[C@@H](OC(CC)CC)[C@H](NC(C)=O)[C@H](N)C1 [化合物9S, 乙基(3R,4R,5R)-4-乙酰氨基-5-氨基-3-(戊-3-基氧基)环己-1-烯-1-羧酸酯] |  |  |  | 316 |  |  |  | 462 | 864 | 440 | 410
8 | CCC(CC)O[C@@H]1C=C(C(=O)O)C[C@H](N)[C@H]1NC(C)=O [化合物10S, (3R,4R,5S)-4-乙酰氨基-5-氨基-3-(戊-3-基氧基)环己-1-烯-1-羧酸] |  | 671 | 737 | 484 |  |  |  |  |  |  | 
9 | CC(=O)N[C@H]1[C@H](O)C=C(C(=O)O)C[C@@H]1N [化合物15S, (3R,4R,5S)-4-乙酰氨基-5-氨基-3-羟基环己-1-烯-1-羧酸] |  | 303 |  | 730 | 354 | 1138 | 681 |  |  |  | 
10 | CCOC(=O)C1=C[C@H](OC(CC)CC)[C@H](N)[C@@H](NC(C)=O)C1 [化合物18S, 乙基(3S,4R,5S)-5-乙酰氨基-4-氨基-3-(戊-3-基氧基)环己-1-烯-1-羧酸酯] |  |  |  | 305 |  |  |  | 418 | 992 | 959 | 1137
11 | CCOC(=O)C1=C[C@@H](OC(CC)CC)[C@H](N)[C@@H](N=[N+]=[N-])C1 [化合物21S, 乙基(3R,4R,5S)-4-氨基-5-叠氮基-3-(戊-3-基氧基)环己-1-烯-1-羧酸酯] | 613 | 533 |  | 375 |  |  | 884 | 407 |  |  | 
